Data: patent US6998383B2, “Inhibitors of receptor activator of NF-κB and uses thereof” (Research Development Corporation, priority 2001, dated 2006)

Tests used:
[1] = molecular target: T1, TRAF5 binding to the cytoplasmic domain of RANK (Mus musculus, UniProt P70191); experiment: Competitive GST-pull down assay, TRAF5 binding to RANK cytoplasmic domain; conditions: 100 μM peptide, FLAG-TRAF5 293 cell extract (FIG. 4C)
T1 construct: expressed in transfected cells; host or cells: human 293 cells (TRAF lysate); The GST-RANK fusion was purified as previously described
T1 sequence (P70191 whole entry, the tested form may be a part): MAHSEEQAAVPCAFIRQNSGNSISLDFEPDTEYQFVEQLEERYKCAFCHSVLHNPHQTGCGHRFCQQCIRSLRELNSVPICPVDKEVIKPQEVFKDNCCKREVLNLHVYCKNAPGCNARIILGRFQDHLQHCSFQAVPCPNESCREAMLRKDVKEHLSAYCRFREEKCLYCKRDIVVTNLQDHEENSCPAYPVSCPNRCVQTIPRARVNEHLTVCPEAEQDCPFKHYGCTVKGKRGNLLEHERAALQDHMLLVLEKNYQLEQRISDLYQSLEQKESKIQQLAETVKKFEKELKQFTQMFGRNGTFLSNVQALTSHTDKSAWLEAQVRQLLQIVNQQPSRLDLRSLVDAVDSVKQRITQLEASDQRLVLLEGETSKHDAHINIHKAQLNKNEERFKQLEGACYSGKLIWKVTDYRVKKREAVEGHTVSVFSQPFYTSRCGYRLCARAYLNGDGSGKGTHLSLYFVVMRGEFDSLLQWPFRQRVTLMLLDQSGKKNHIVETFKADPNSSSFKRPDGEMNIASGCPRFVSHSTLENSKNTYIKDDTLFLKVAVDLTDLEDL
Method: Cellular extracts from human 293 cells transfected with either FLAG-TRAF2, -TRAF5, or -TRAF6 were mixed with GST or GST-RANKed in the absence or presence of 100 μM of the indicated peptides. A GST-pull down assay was performed as described below. The bound TRAFs were visualized by immunoblotting with anti-FLAG antibodies.
Equivalent amounts of GST or GST-RANK cytoplasmic domain (GST-RANKed) fusion protein attached to 20 μl of glutathione agarose beads were mixed with lysates (50 μg) from 293 cells programmed to express the epitope-tagged TRAF protein and the indicated peptides in binding buffer (20 mM TRIS, pH 8, 150 mM NaCl, 1 mM DTT, 2 mM EDTA, and 0.1% NP-40) and allowed to rotate for 1 h at 4° C. The beads were collected by centrifugation, washed three times in binding buffer, and then washed once in low-salt buffer (20 mM TRIS, pH 8, 50 mM NaCl, and 1 mM DTT). Bound proteins were eluted with addition of SDS-sample buffer and boiled. The eluted proteins were subjected to 7.5% SDS-PAGE and western blot analysis was performed with anti-FLAG antibodies.
The cytoplasmic domain of RANK interacts with many TRAF molecules, including TRAF1, 2, 3, 5, and 6 (7-9, 11, 12). While TRAF1, 2, 3, and 5 interact with the c-terminal tail of receptor activator of NF-κB, TRAF6 interacts with a membrane proximal region of the cytoplasmic domain of the receptor activator of NF-κB. […]

[2] = tested on: RAW cells co-cultured with breast cancer cell lines; experiment: Osteoclast differentiation of RAW cells induced by co-cultured breast cancer cells (T47D, MDA-MB-468); format: cell-based, mouse; conditions: co-culture, 100 μM peptide, 5 days, TRAP staining (FIG. 6A)
Method: FIG. 6A: Breast cancer cells (500/well) were plated in 24-well plates in the absence or presence of RAW cells (10000/well) and in the absence or presence of L-T6DP-1 or T6DP-1 (100 μM). After 5 days. the cells were fixed, stained for TRAP, and photographed with a 10× objective lens.
The number of MG-63 cells was critical for inducing RAW cells to differentiate into osteoclasts. These observations lead to a direct inverse relationship between the number of RAW cells to MG-63 cells which is required for the formation of osteoclasts. […] When grown on synthetic bone slides, the osteoclasts derived from the co-culture assays were able to cause bone resorption (FIG. 6B).
When L-T6DP-1 was added to these co-culture assays, the ability of the breast cancer cells to induce osteoclast differentiation of RAW cells was abolished, whereas T6DP-1 had no effect (FIG. 6A).

[3] = tested on: RAW264.7 cells; experiment: RANKL-mediated osteoclast differentiation in RAW264.7 cells (TRAP staining); format: cell-based, mouse
Method: RAW264.7 cells were plated in 12-well plates and stimulated with RANKL (30 ng/ml) for 4 days. Cells were stained for TRAP essentially as described below. Photographs were taken using a 10× objective lens.
RAW cells were plated as described in FIG. 2A and treated with RANKL in the presence of 1, 30, or 100 μM of peptides as indicated. On day 4 cells were stained and evaluated as in FIG. 2A.
RAW264.7 cells were plated in 48-well plates in triplicate and treated with RANKL in the presence of increasing amounts of the indicated peptides. After 4-5 days, the cells were stained for TRAP and the total numbers of osteoclasts were counted as described below.
Primary bone marrow monocytes (BM) or RAW264.7 cells were cultured in 48-well dishes at a density of 1×10^5 cells/well or 2×10^3 cells/well, and then treated with the indicated factors at the beginning of the culture and during a medium change on day 3. Osteoclast formation was assessed by counting the total number of multi-nucleated (>3 nuclei), TRAP-positive cells present per well between day 7 and 10 (BM) or on day 5 (RAW264.7) (30).
The mouse macrophage cell line RAW264.7 express the receptor activator of NF-κB on their cell surface and when stimulated with the receptor activator of NF-κB ligand differentiate into multi-nucleated, tartrate resistant acid phosphatase (TRAP) positive osteoclasts after 4-5 days (FIG. 2A). To determine whether L-T6DP-1 could inhibit RANKL-mediated osteoclast differentiation, RAW264.7 cells were co-cultured with increasing concentrations of either L-T6DP-1. or T6DP-1 and 30 ng/ml RANKL for 4 days.

[4] = tested on: p38 kinase; experiment: RANKL-mediated p38 kinase activation in RAW264.7 cells (phospho-specific immunoblot); format: cell-based, mouse; conditions: peptide 6 h, RANKL 10 nM 15 min (FIG. 5C)
Method: (§1) FIG. 5B and FIG. 5C show inhibition of RANKL-mediated ERK and p38 activation by L-T6DP-1. Whole cell extracts (30 μg) from FIG. 5A were separated by 10% SDS-PAGE and electroblotted onto a nitrocellulose membrane. The membranes were first immunoblotted with the indicated phospho-specific antibody and then stripped and re-probed with the indicated antibodies as described below.
(§2) Stimulation of the receptor activator of NF-κB activates members of the MAPK family including JNK, ERK and p38 kinase. The ability of the TRAF6 binding peptides to inhibit the receptor activator of NF-κB ligand-induced JNK, ERK, and p38 kinase activation was examined in RAW264.7 cells. […] Similar to the results with JNK, only L-T6DP-1 was able to block ERK (FIG. 5B) and p38 kinase (FIG. 5C) activation induced by the receptor activator of NF-κB ligand in RAW264.7 cells.

[5] = tested on: ERK; experiment: RANKL-mediated ERK activation in RAW264.7 cells (phospho-specific immunoblot); format: cell-based, mouse; conditions: peptide 6 h, RANKL 10 nM 15 min (FIG. 5B)
Method: as §1, §2

L-T6DP-1: Kaposi fibroblast growth factor signal sequence hydrophobic domain attached to murine RANK peptide containing the known TRAF6 binding domain (AAVALLPAVLLALLAPRKIPTEDEYTDRPSQPST; PEPTIDE Peptide L-T6Bp-1)
TRAF5 binding to the cytoplasmic domain of RANK [1]: neither L-T6DP-1 nor L-T6DP-2 inhibited
ability of breast cancer cells to induce osteoclast differentiation of RAW cells [2]: abolished
RANKL-mediated osteoclast differentiation ([3]; 30 ng/ml RANKL, 4 days, 1, 30 or 100 μM peptide (FIG. 2B)): dose-dependent inhibition
multi-nucleated osteoclasts ([3]; RANKL, 100 μM peptide, cells still TRAP positive (FIG. 2B)): multi-nucleated osteoclast were not observed
number of TRAP positive osteoclasts ([3]; RANKL, increasing amounts of peptide, 4-5 days (FIG. 2C)): dose-dependent decrease
RANKL-induced p38 kinase activation [4]: able to block
RANKL-induced ERK activation [5]: able to block
